{
  "source": "paper PMC12270677",
  "about": "“Topological isomers of a potent wound healing peptide: Structural insights and implications for bioactivity” (The Journal of Biological Chemistry, 2025)",
  "key": {"[1]": {"tested_on": "LX-2 human hepatic stellate cell line", "test": "Real-time cell proliferation assay (xCELLigence)", "conditions": "for Proliferative response of LX-2 cells at concentrations up to 400 nM: 4 days after single treatment, relative to GSP, ANOVA against peptide control; for EC50: read-out: EC50, LX-2 cell proliferation, xCELLigence SP, 3000 cells per well, serum-free medium, single treatment, proliferation measured 4 days after treatment, relative to scrambled peptide control GSP, variable slope dose-response fit, six replicates per treatment", "experimental": "Real-time cell proliferation assays using xCELLigence technology were performed to assess the effects of GRN-P4A isomers and the mutant peptide GRN-L1m on the human hepatic stellate cell line LX-2.\nFigure 7 Cell proliferation assay of GRN-P4A isomers and GRN-L1m on human hepatic stellate cells (LX-2). The five peptides were tested across a concentration range of 0.16 nM to 800 nM using the LX-2 human hepatic stellate cell line. Two negative controls were included: serum-free media (SFM) and a scrambled GRN-P4A peptide (GSP). The graphs display variable slope dose–response curves fitted to proliferation data measured 4 days after a single treatment application. […] Proliferation is expressed relative to the scrambled peptide control (GSP) and presented as mean ± SEM. Statistical significance was assessed using one-way ANOVA against the peptide control. ∗ = […], ∗∗ = p < 0.01, ∗∗∗ = p < 0.001, ∗∗∗∗ = p < 0.0001.\nThe LX-2 human hepatic stellate cell line was generously donated by Dr Lionel Hebbard. Cells were cultured and maintained in Dulbecco’s Modified Eagle Medium/Nutrient Mixture F-12 (DMEM/F12) with GlutaMAX (Gibco) with 2 × antibiotic/antimycotic solution (penicillin, streptomycin, and amphotericin B), supplemented with 2% fetal bovine serum (FBS) (Gibco), at 37°C and 5% CO2. For the negative control, cells were treated with scrambled granulin peptide (GSP) or serum free media diluent. Dried peptide powder was resuspended in Milli-Q water to 170 μM and diluted in serum-free DMEM/F12 media.\nCell proliferation was monitored in real time using the xCELLigence SP system (ACEA Biosciences), following previously established method ([37]). LX2 cells were seeded into a 96-well xCELLigence E-plate (Agilent) at a density of 3000 cells per well in 150 μl of medium, and placed in the xCELLigence system at 37°C with 5% CO2, for overnight monitoring ([38]). Treatments were applied in serum-free medium at 20 μl per well, achieving final concentrations of […] to 800 nM, with six replicates per treatment. The cell index (CI) was continuously monitored using the Real-Time Cell Analysis (RTCA) software (Agilent), with measurements taken every hour over 6 days following treatment. Cell indices were normalized to the baseline values prior to treatment, and cell proliferation was expressed as the relative number of cells compared to the negative control GRN-scrambled peptide (GSP). Statistical analysis was conducted using two-way ANOVA test with Holm-Sidak’s correction comparing controls to treatments at each timepoint with GraphPad Prism 9.3.1 (www.graphpad.com)."}, "[2]": {"tested_on": "wound healing in a mouse model", "conditions": "compared with Regranex; cited from earlier work", "excerpt": "This study highlights the structural complexity and bioactivity of isomers in disulfide-rich peptides, with a focus on GRN-P4A. GRN-P4A is a mutant peptide derived from Ov-GRN12 − 35_3s, a truncated form of the liver fluke granulin Ov-GRN-1, known for its potent wound healing properties."}, "[3]": {"test": "NMR at three temperatures to assess interconversion of isomer 1 into isomer 2", "type": "physicochemical", "conditions": "αH secondary shifts at 283 K, 290 K and 310 K, 0.2 mM peptide in water/D2O", "experimental": "NMR spectra of isomer 1 were recorded at the three different temperatures of 290 K (standard conditions), 310 K (physiological temperature), and 283 K (lower temperature) to assess potential interconversion into isomer 2, the major oxidation product.\nLyophilized peptides were rehydrated in a mixture of 500 μl water and 50 μl D2O, to obtain a final concentration of 0.2 mM. NMR spectra were recorded at temperatures of 283, 290 and 310 K using a 600 MHz Bruker Avance III spectrometer (Bruker) equipped with a cryoprobe. Chemical shifts were referenced to external DSS (sodium trimethylsilylpropanesulfonate). Two-dimensional spectra included [^1H,^1H]-TOCSY, [^1H,^1H]-H/D exchange TOCSY, [^1H,^1H]-NOESY, [^1H,^1H]-COSY, [^1H,^1H]-exclusive correlation spectroscopy, [^1H,^13 C]-HSQC, and [^1H,^15 N]-HSQC with TOCSY and NOESY mixing times of 80 ms and 200 ms, respectively. NMR data processing and analysis were performed using TopSpin (Bruker), and peak assignments were made using CcpNMR Analysis (Collaborative Computing Project for NMR) based on the method outlined by Wuthrich ([28], [29]). Backbone torsion-angle restraints for phi and psi were predicted from ^1H and ^13C chemical-shift analyses, were predicted using TALOS-N ([30]). […] The αH secondary shifts were determined by subtracting random coil ^1H NMR chemical shifts ([19]) from the experimental αH chemical shifts. […]"}},
  "note": "Positions of bridges follow the written chain, without caps; N, C: chain ends. Residues, ends and D or L forms follow the SMILES beside them. No end group written: not given here.",
  "data": [
    {"compound": "CPDAVYTCRPGQTCCRGLHGYGCC (also: bicyclic or more (positions not given here)) [GRN-P4A isomer 3]", "values": [
      {"measurement": "Cytotoxicity", "setting": "[1]; LX-2 cells, xCELLigence, statement in the Discussion, likely due to peptide aggregation", "value": "displayed cytotoxicity"},
      {"measurement": "Proliferative response of LX-2 cells at concentrations up to 400 nM", "setting": "[1]; xCELLigence, listed as isomer 3", "value": "did not produce a statistically significant response"}
    ]},
    {"compound": "CPDAVYTCRPGQTCCRGLHGYGCC (also: bicyclic or more (positions not given here)) [GRN-P4A, 24-residue peptide containing three disulfide bonds engineered from liver-fluke granulin Ov-GRN-1]", "values": [
      {"measurement": "Wound healing activity in a mouse model", "setting": "[2]", "value": "enhanced wound healing activity"}
    ]},
    {"compound": "CC(C)C[C@@H]1NC(=O)CNC(=O)[C@H](CCCNC(=N)N)NC(=O)[C@@H]2CSSC[C@@H](C(=O)O)NC(=O)[C@H](CSSC[C@@H]3NC(=O)[C@H]([C@@H](C)O)NC(=O)[C@H](Cc4ccc(O)cc4)NC(=O)[C@H](C(C)C)NC(=O)[C@H](C)NC(=O)[C@H](CC(=O)O)NC(=O)[C@@H]4CCCN4C(=O)[C@@H](N)CSSC[C@H](NC(=O)[C@H]([C@@H](C)O)NC(=O)[C@H](CCC(N)=O)NC(=O)CNC(=O)[C@@H]4CCCN4C(=O)[C@H](CCCNC(=N)N)NC3=O)C(=O)N2)NC(=O)CNC(=O)[C@H](Cc2ccc(O)cc2)NC(=O)CNC(=O)[C@H](Cc2c[nH]cn2)NC1=O", "note": "(single isomer, unassigned) [GRN-P4A isomer 2]", "values": [
      {"measurement": "EC50", "setting": "[1]; LX-2 cells", "value": 93, "unit": "nM"}
    ]},
    {"compound": "CPDAVYTCRPGQTCCRGLHGYGCC (also: bicyclic or more (positions not given here)) [GRN-P4A isomer 1, Fully oxidized GRN-P4A topological isomer eluting first in RP-HPLC, mini-granulin fold]", "values": [
      {"measurement": "Conformational stability / interconversion into isomer 2 with temperature", "setting": "[3]; listed as Isomer 1", "value": "retained its structure across all tested temperatures"},
      {"measurement": "Conformational stability / interconversion into isomer 2 with temperature", "setting": "[3]; listed as isomer 1", "value": "no evidence of interconversion"},
      {"measurement": "Proliferative response of LX-2 cells at concentrations up to 400 nM", "setting": "[1]; xCELLigence", "value": "did not produce a statistically significant proliferative response"},
      {"measurement": "Proliferative response of LX-2 cells at concentrations up to 400 nM", "setting": "[1]; xCELLigence, listed as isomer 1", "value": "did not produce a statistically significant response"}
    ]},
    {"compound": "CPDAVYTCRPGQTCCRGLHGYGCC (also: bicyclic or more (positions not given here)) [GRN-P4A isomer 4]", "values": [
      {"measurement": "Cell proliferation at higher concentrations", "setting": "[1]; LX-2 cells, xCELLigence, statement in the Discussion, tested up to 800 nM", "value": "promoted cell proliferation at higher concentrations"},
      {"measurement": "Proliferative response of LX-2 cells at concentrations up to 400 nM", "setting": "[1]; xCELLigence, listed as isomer 4", "value": "did not produce a statistically significant response"}
    ]},
    {"compound": "CC(C)C[C@@H]1NC(=O)CNC(=O)[C@H](CCCNC(=N)N)NC(=O)[C@@H]2CSSC[C@@H](C(=O)O)NC(=O)[C@H](CSSC[C@@H]3NC(=O)[C@H]([C@@H](C)O)NC(=O)[C@H](Cc4ccc(O)cc4)NC(=O)[C@H](C(C)C)NC(=O)[C@H](C)NC(=O)[C@H](CC(=O)O)NC(=O)CNC(=O)[C@@H](N)CSSC[C@H](NC(=O)[C@H]([C@@H](C)O)NC(=O)[C@H](CCC(N)=O)NC(=O)CNC(=O)[C@@H]4CCCN4C(=O)[C@H](CCCNC(=N)N)NC3=O)C(=O)N2)NC(=O)CNC(=O)[C@H](Cc2ccc(O)cc2)NC(=O)CNC(=O)[C@H](Cc2c[nH]cn2)NC1=O", "note": "[GRN-L1m] (H-CGDAVYTCRPGQTCCRGLHGYGCC-OH; disulfide 1-14, 8-23, 15-24)", "values": [
      {"measurement": "EC50", "setting": "[1]; LX-2 cells", "value": 318, "unit": "nM"}
    ]}
  ]
}
